Assay results as given in patent US20240199601A1, “QUINONE COMPOUND AND PHARMACEUTICAL USE THEREOF” (NANJING SHUPENG LIFE SCIENCE CO., LTD., priority 2021, published 2024).
“Also recorded” adds a separate entry of the source. Where two headings read alike, the source gives them in different places.

Key:
[1] = cited from earlier work
humans = settings: cited from earlier work
[2] = cited from earlier work; remark: listed apart in the source
acetaldehyde = settings: 11.5 mg/kg body weight i.p. before ethanol by gavage; cited from earlier work
[3] = test system: inflammatory pain model (complete Freund's adjuvant); experiment: Inflammatory pain model (complete Freund's adjuvant), mechanical pain threshold; type: in vivo, SD rats; settings: for duration of the analgesic effect / analgesic effect 1.5 hours after oral administration: single oral dose (SP3101 20 mg/kg); for analgesic effect 1.5 hours after oral administration: mechanical pain threshold vs model group
Description: 4 SD rats with a body weight of 200-250 g were used as a blank control (NC), and normal saline was injected into the soles of the left feet of the rats. Inflammatory pain models of 18 rats were constructed, that is to say, 100 μL of a complete Freund's adjuvant was injected into soles of the left feet of the rats, mechanical pain thresholds of the left feet were detected by an ALMEMO2490 data collector 24 hours later, 2 rats with a pain threshold of greater than 15 were abandoned, and the other 16 rats were randomly divided into 4 groups with 4 rats in each group and then administered with water as a positive control (PC), SP3101 (20 mg/kg), PQQ (20 mg/kg) and ibuprofen (25 mg/kg/day) by gavage, respectively.

rats = settings: oral, cited from earlier work
[4] = test system: chronic constriction injury (CCI) model; settings: CCI model of rats; cited from earlier work
[5] = beagles; cited from earlier work
AMPK [6] = experiment: AMPK phosphorylation level in a variety of cells; type: cell-based; settings: 100 nM
[7] = test system: antioxidant transcription factor (Nrf2); experiment: Nrf2 expression in RAW264.7 cells (protein hybridization); type: cell-based; settings: different concentrations, 24 hours
Description: (§1) RAW264.7 cells were inoculated into two six-well plates and enabled to grow to a density of about 90%, and SP3101 and SP3102 of different concentrations were added, respectively. 24 hours later, the cells were lysed with a radio immunoprecipitation assay (RIPA) lysis buffer, and the expression of proteins was detected by protein hybridization.
(§2) Phosphorylation of serine at the 127th site of AMPK is used as an activation marker. […] It can be seen that the compounds, represented by the SP3101 and the SP3102, of the present invention are used as an AMPK agonist.

[8] = test system: autophagy related protein (LC3B); experiment: LC3B expression in RAW264.7 cells (protein hybridization); type: cell-based; settings: different concentrations, 24 hours
Description: as §1, §2

AMPK [9] = experiment: AMPK agonist test in RAW264.7 cells (protein hybridization, p-AMPK); type: cell-based; settings: 0.1 μM, 24 hours
Description: as §1, §2

[10] = human volunteers, 60 mg/day for one month
[11] = 20 mg/kg/day orally for three days, rats

**Q.** For `O=C(O)c1cc(C(=O)O)c2c(n1)C(=O)C(=O)c1cc(C(=O)O)[nH]c1-2` [PQQ, 4,5-dihydro-4,5-dioxo-1H-pyrrolo(2,3-f)quinone-2,7,9-tricarboxylic acid], which “excreted by the kidney (through urine)” value ([1]; 24 hours after the administration) is on record?
**A.** 80%

**Q.** And the “absorbed by the small intestines” value ([1]; after oral administration)?
**A.** about 60%

**Q.** What about the “safe dose determined by the FDA (rarely adverse events)” value (humans; healthy adults, body weight about 60 kg, every day) of the same compound?
**A.** 240 mg

**Q.** What about the adverse responses (humans; [10]) of the same compound?
**A.** no adverse responses

**Q.** What about the “changes of kidney injury markers” value (humans; [10]) of the same compound?
**A.** no changes of kidney injury markers

**Q.** What about the solubility in water [2] of the same compound?
**A.** slightly soluble in water

**Q.** And the “concentration of acetaldehyde vs control group” value (acetaldehyde)?
**A.** much lower concentration of acetaldehyde

**Q.** And the “concentration of ethanol in the blood and liver vs control group” value (acetaldehyde)?
**A.** no obvious differences

**Q.** What about the “analgesic effect 1.5 hours after oral administration on the first day” value [3, 11] of the same compound?
**A.** No analgesic effect

**Q.** What about the “analgesic effect on day 2/3/4/5/6/7” value [3, 11] of the same compound?
**A.** obvious analgesic effect

**Q.** What about the Adverse response (rats; female rats, 14 days) of the same compound?
**A.** Reversible; also recorded: Increased kidney; also recorded: Increased urine

**Q.** And the “Median lethal dose (LD50)” value (rats; female rats, 14 days)?
**A.** 500-1,000 mg/kg/day

**Q.** What about the Adverse response (rats; female rats, 91 days, 400 mg/kg/day) of the same compound?
**A.** None

**Q.** What about the Adverse response (rats; male rats, 14 days) of the same compound?
**A.** None

**Q.** And the “Median lethal dose (LD50)” value (rats; male rats, 14 days)?
**A.** 1,000-2,000 mg/kg/day

**Q.** What about the Adverse response (rats; male rats, 91 days, 400 mg/kg/day) of the same compound?
**A.** None

**Q.** What about the analgesic effect [4] of the same compound?
**A.** had an analgesic effect

**Q.** What about the bioavailability [5] of the same compound?
**A.** about 12%

**Q.** And the “phosphorylation level of the AMPK” value (AMPK [6])?
**A.** significantly up-regulate

**Q.** What does the source list for `CC(=O)Oc1cc(C(=O)O)c2c(n1)C(=O)C(=O)c1cc[nH]c1-2` [SP3102, 7-acetoxy-4,5-dioxo-4,5-dihydro-1H-pyrrolo[2,3-f]quinone-9-carboxylic acid]?
**A.** expression of antioxidant transcription factor (Nrf2) [7]: increased in a dose-dependent manner; expression of autophagy related protein (LC3B) [8]: also increased; duration of the analgesic effect ([3]; rats): 72 h; analgesic effect 1.5 hours after oral administration ([3]; rats): obvious analgesic effect; activation of AMPK (expression of p-AMPK) (AMPK [9]): obviously activate the AMPK; phosphorylation level of the AMPK (AMPK [6]): significantly up-regulate

**Q.** Which “duration of the analgesic effect” value ([3]; rats) does the source give for `COc1cc(C(=O)O)c2c(n1)C(=O)C(=O)c1cc[nH]c1-2` [SP3103, 7-methoxy-4,5-dioxo-4,5-dihydro-1H-pyrrolo[2,3-f]quinone-9-carboxylic acid] here?
**A.** 72 h

**Q.** What about the “analgesic effect 1.5 hours after oral administration” value ([3]; rats) of the same compound?
**A.** obvious analgesic effect

**Q.** With `CC(C)Cc1ccc(C(C)C(=O)O)cc1` (stereo not drawn) [ibuprofen] as the compound, how does the “analgesic effect 1.5 hours after each oral administration” value ([3]; 25 mg/kg once a day orally for 3 days, day 1/2/3, rats) read?
**A.** obvious analgesic effect

**Q.** And the “analgesic effect before administration” value ([3]; 25 mg/kg once a day orally, rats, data not shown)?
**A.** no analgesic effect

**Q.** What about the “analgesic effect on the fourth day without administration” value ([3]; after 25 mg/kg once a day orally for 3 days, rats) of the same compound?
**A.** no analgesic effect
